Assay results published in patent US10202391B2, “Chemical compounds” (AstraZeneca AB, priority 2015, dated 2019).

Legend:
[1] = tested on: phospho-p90RSK in A375 cell line; test: A375 Phospho-p90RSK Cellular Assay; type: cell-based, human; conditions: Homo sapiens, A-375; A375 cells, 2 hours incubation
Description: (§1) All compounds or DMSO (dimethyl sulphoxide) for the ERK2 Mass Spectrometry and A375 phospho-p90RSK assays were dispensed from source plates containing compounds at 10 mM in 100% (v/v) DMSO or 100% DMSO, directly into assay plates using an Echo 555 Acoustic dispenser (Labcyte Inc™). Depending on the assay, two separate plate preparations were followed. In Workflow A, 10 mM compound stocks were diluted 1:100 using a fixed-tip 96-head Agilent VPrep liquid handler (Agilent Technologies, Santa Clara, Calif.) to give four intermediate dilutions (10 mM, 100 μM, 1 μM, 10 nM). In Workflow B, 10 mM compound stocks were diluted 1:10 using a Tecan Freedom Evo (Tecan Group Ltd., Switzerland), and then 1:100 using the Echo 555 and Labcyte LX to produce three intermediate dilutions across three Labcyte qualified source plates (1 mM, 10 μM, 100 nM). These intermediate dilution plates were then used by the Echo 555 to generate final assay-ready compound plates with a 12 point dose range (10, 3, 1, 0.25, 0.1, 0.03, 0.01, 0.0025, 0.001, 0.0003, 0.0001, 0.0000125 μM) in order to calculate compound IC50s, with a total DMSO concentration in the assay of 1%. For the ERK2 Mass Spectrometry assay Workflow B was used. For the A375 phospho-p90RSK cell assay, the intermediate 1:100 dilution plate described in Workflow A was used by the Echo to dispense compounds and DMSO directly into the cell plates with a 12 point dose range (30, 10, 3.125, 1.25, 0.3, 0.1, 0.03125, 0.0125, 0.003, 0.001, 0.0003125, 0.00003 μM) in order to calculate compound IC50's, with a total DMSO concentration in the assay of 0.3%.
A375 Phospho-p90RSK Cellular Assay
A375 cells were cultured in cell media composed of DMEM (Dulbecco's modified Eagle's medium), 10% (v/v) Foetal Calf Serum and 1% (v/v) L-Glutamine. After harvesting, cells were dispensed into black, 384-well Costar plates (#3712, Corning) to give 2400 cells per well in a total volume of 40 μl cell media, and were incubated overnight at 37° C., 90% relative humidity and 5% CO2 in a rotating incubator. Test compounds and reference controls were dosed directly into the cell plates using a Labcyte Echo 555 acoustic dispenser. The cell plates were then incubated for 2 hours at 37° C. before being fixed by the addition of 20 μl 12% formaldehyde in PBS/A (4% final concentration), followed by a 20 minute room temperature incubation, and then a 2× wash with 150 μl PBS/A (phosphate buffered saline containing albumin) using a BioTek ELx405 platewasher. Cells were permeabilised with 20 μl 0.1% Triton X-100 in PBS/A for 20 minutes at room temperature, and then washed 1× with 100 μl PBS/A. Primary phospho-p90RSK (Thr359) (D1E9) rabbit monoclonal antibody (#8753, Cell Signaling Technology) was diluted 1:1000 in assay buffer (0.05% (v/v) Tween, 5% (v/v) Foetal Calf Serum, in PBS/A), 20 μl added per well, and plates were incubated at 4° C. overnight. Cell plates were washed 2× with 200 μl PBS/T (phosphate buffered saline containing Tween-20), then 20 μl 1:500 dilution in assay buffer of Alexa Fluor® 647 goat anti-rabbit IgG secondary antibody (#A31573, Molecular Probes, Life Technologies), with a 1:5000 dilution of Hoechst 33342, was added per well. Following a 90 minute incubation at room temperature, plates were washed 2× with 200 μl PBS/T, and 40 μl PBS/A was added per well. Stained cell plates were covered with black lid seals, and then read on a Cellomics ArrayScan™ VTI imaging platform (Thermo Scientific), using an XF53 filter with 10× objective, with a LED light source set-up to analyse nuclear staining with Hoechst 33342 (405 nm) and secondary antibody staining of phospho-p90RSK (647 nm). Data was analysed and IC50's were calculated using Genedata Screener® software.

ERK2 = target: T1, ERK2 (Homo sapiens, UniProt P28482); test: ERK2 Rapidfire Mass Spectrometry Inhibition of Catalysis Assay; type: biochemical; conditions: 1.2 nM ERK2, 16 μM Erktide, 120 μM ATP (measured Km), 15 minute pre-incubation; read-out: ERK2 Mass Spectrometry Enzyme IC50
T1 construct: made in house
Description: as §1
ERK2 Rapidfire Mass Spectrometry Inhibition of Catalysis Assay
MEK U911-activated ERK2 protein was expressed and purified in-house. Enzyme and substrate solutions were made up in assay buffer consisting of 50 mM Tris (pH 7.5), 10 mM MgCl2, 0.1 mM EGTA (ethylene glycol tetraacetic acid), 10 mM DTT (dithiothreitol) and 0.01% (v/v) CHAPS (3-[(3-Cholamidopropyl)dimethylammonio]-1-propanesulfonate). 1.2 nM ERK2 protein was prepared in assay buffer and 10 μl was dispensed into each well of a polypropylene, 384-well plate (#781201, Greiner) containing test and reference control compounds. […] The reaction was allowed to progress for 20 minutes at room temperature before being quenched by the addition of 80 al 1% (v/v) formic acid. The assay plates were then run on the RapidFire Mass Spectrometry platform (Agilent) to measure substrate (unphosphorylated Erktide) and product (phosphorylated Erktide) levels. Data was analysed and IC50's (half maximal inhibitory concentration) were calculated using Genedata Screener® software.

T1 sequence (P28482 whole entry): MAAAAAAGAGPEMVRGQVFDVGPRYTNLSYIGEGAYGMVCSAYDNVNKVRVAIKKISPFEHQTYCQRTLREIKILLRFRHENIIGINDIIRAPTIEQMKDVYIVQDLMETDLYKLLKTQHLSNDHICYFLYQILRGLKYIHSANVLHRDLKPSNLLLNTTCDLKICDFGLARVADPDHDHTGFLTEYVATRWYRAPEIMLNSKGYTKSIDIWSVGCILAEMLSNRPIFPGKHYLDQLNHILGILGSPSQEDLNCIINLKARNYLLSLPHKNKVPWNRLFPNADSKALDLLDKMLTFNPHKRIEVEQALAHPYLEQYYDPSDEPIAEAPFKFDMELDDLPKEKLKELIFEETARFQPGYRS

IC50 [1] [nM] | IC50 (ERK2) [nM] | Structure (SMILES)
17000 | 17.4 | Cc1cccc(CN2CCn3cc(-c4ccnc(Nc5ccnn5C)n4)nc3C2=O)n1 [Example 1, 2-(2-((1-Methyl-1H-pyrazol-5-yl)amino)pyrimidin-4-yl)-7-((6-methylpyridin-2-yl)methyl)-6,7-dihydroimidazo[1,2-a]pyrazin-8(5H)-one]
86 | 0.7 | C[C@H]1Cn2cc(-c3ccnc(Nc4ccnn4C)n3)nc2C(=O)N1Cc1cccc(Cl)c1 [Example 2, (S)-7-(3-Chlorobenzyl)-6-methyl-2-(2-((1-methyl-1H-pyrazol-5-yl)amino)pyrimidin-4-yl)-6,7-dihydroimidazo[1,2-a]pyrazin-8(5H)-one]
81 | 0.5 | C[C@H]1Cn2cc(-c3ccnc(Nc4ccnn4C)n3)nc2C(=O)N1Cc1ccc(F)c(Cl)c1 [Example 3, (S)-7-(3-Chloro-4-fluorobenzyl)-6-methyl-2-(2-((1-methyl-1H-pyrazol-5-yl)amino)pyrimidin-4-yl)-6,7-dihydroimidazo[1,2-a]pyrazin-8(5H)-one]
630 | 1.8 | C[C@H]1Cn2cc(-c3ccnc(Nc4ccnn4C)n3)nc2C(=O)N1Cc1ccc(F)c(F)c1 [Example 4, (S)-7-(3,4-Difluorobenzyl)-6-methyl-2-(2-((1-methyl-1H-pyrazol-5-yl)amino)pyrimidin-4-yl)-6,7-dihydroimidazo[1,2-a]pyrazin-8(5H)-one]
110 | 2 | Cc1cnc(Nc2ccnn2C)nc1-c1cn2c(n1)C(=O)N(Cc1cccc(C(F)(F)F)n1)CC2 [Example 5, 2-(5-Methyl-2-((1-methyl-1H-pyrazol-5-yl)amino)pyrimidin-4-yl)-7-((6-(trifluoromethyl)pyridin-2-yl)methyl)-6,7-dihydroimidazo[1,2-a]pyrazin-8(5H)-one]
25 | 0.6 | C[C@H]1Cn2cc(-c3nc(Nc4ccnn4C)ncc3Cl)nc2C(=O)N1Cc1ccc(F)c(F)c1 [Example 6, (S)-2-(5-Chloro-2-((1-methyl-1H-pyrazol-5-yl)amino)pyrimidin-4-yl)-7-(3,4-difluorobenzyl)-6-methyl-6,7-dihydroimidazo[1,2-a]pyrazin-8(5H)-one]
38 | 0.5 | COc1cccc(CN2C(=O)c3nc(-c4nc(Nc5ccnn5C)ncc4Cl)cn3C[C@@H]2C)c1 [Example 7, (S)-2-(5-Chloro-2-((1-methyl-1H-pyrazol-5-yl)amino)pyrimidin-4-yl)-7-(3-methoxybenzyl)-6-methyl-6,7-dihydroimidazo[1,2-a]pyrazin-8(5H)-one]
210 | 1.1 | C[C@H]1Cn2cc(-c3nc(Nc4ccnn4C)ncc3Cl)nc2C(=O)N1Cc1ccnc(C(F)(F)F)n1 [Example 8, (S)-2-(5-chloro-2-((1-methyl-1H-pyrazol-5-yl)amino)pyrimidin-4-yl)-6-methyl-7-((2-(trifluoromethyl)pyrimidin-4-yl)methyl)-6,7-dihydroimidazo[1,2-a]pyrazin-8(5H)-one]
190 | 0.5 | C[C@H]1Cn2cc(-c3nc(Nc4ccnn4C)ncc3Cl)nc2C(=O)N1Cc1cccc(C(F)F)n1 [Example 9, (S)-2-(5-Chloro-2-((1-methyl-1H-pyrazol-5-yl)amino)pyrimidin-4-yl)-7-((6-(difluoromethyl)pyridin-2-yl)methyl)-6-methyl-6,7-dihydroimidazo[1,2-a]pyrazin-8(5H)-one]
55 | 1.1 | C[C@H]1Cn2cc(-c3nc(Nc4ccnn4C)ncc3Cl)nc2C(=O)N1Cc1cccc(C(F)(F)F)n1 [Example 10]
93 |  | COC[C@@H]1Cn2cc(-c3nc(Nc4ccnn4C)ncc3C)nc2C(=O)N1Cc1ccc(F)c(F)c1 [Example 35, Ethanesulfonic acid adduct of (S)-7-(3,4-difluorobenzyl)-6-(methoxymethyl)-2-(5-methyl-2-((1-methyl-1H-pyrazol-5-yl)amino)pyrimidin-4-yl)-6,7-dihydroimidazo[1,2-a]pyrazin-8(5H)-one]
